What all share (type): cell-based
In test [1] the test system is BT-549. The test can be described thus: CCK-8 tumor cell proliferation, BT-549. To be noted: Homo sapiens, BT-549 cells, 72 hours. On the procedure: (§1) Tumor cells (see Table 2 to Table 5) were inoculated in 96-well plates in complete culture medium (2000-3000 cells/well). After overnight incubation, the compounds with different concentrations (0.000508 μM-10 μM) were used to treat the cells separately for 72 hours. CCK-8 (Cell Counting Kit 8, Dojindo Laboratories, Kumamoto, Japan) experiment was used to evaluate cell proliferation. GraphPad Prism 5.0 software (La Jolla, CA) was used to calculate the half-maximal inhibitory concentration (IC50) values by fitting the concentration response curve. Each IC50 value was represented as an average value±SD.

For test [2], the system named is PANC-1. The test can be described thus: CCK-8 tumor cell proliferation, PANC-1. To be noted: Homo sapiens, PANC-1 cells, 72 hours. As for the experimental part:
as §1

Test [3] relates to K562. The test can be described thus: CCK-8 tumor cell proliferation, K562. To be noted: Homo sapiens, K562 cells, 72 hours. As for the experimental part: as §1
The subject of test [4] is BXPC-3. The test can be described thus: CCK-8 tumor cell proliferation, BXPC-3. To be noted: Homo sapiens, BXPC-3 cells, 72 hours. As for the experimental part: as §1
For test [5], the system named is Bel-7402. The test can be described thus: CCK-8 tumor cell proliferation, Bel-7402. To be noted: Homo sapiens, Bel-7402 cells, 72 hours. On the procedure:
as §1

The subject of test [6] is MDA-MB-453. The test can be described thus: CCK-8 tumor cell proliferation, MDA-MB-453. To be noted: Homo sapiens, MDA-MB-453 cells, 72 hours. As for the experimental part:
as §1

The test system of test [7] is HCT116. The test can be described thus: CCK-8 tumor cell proliferation, HCT116. To be noted: Homo sapiens, HCT-116, HCT116 cells, 72 hours. As for the experimental part: as §1
For test [8], the system named is MIAPACA-2. The test can be described thus: CCK-8 tumor cell proliferation, MIAPACA-2. To be noted: Homo sapiens, MIA PaCa-2, MIAPACA-2 cells, 72 hours. As for the experimental part:
as §1

Test [9] has as its system MDA-MB-231. The test can be described thus: CCK-8 tumor cell proliferation, MDA-MB-231. To be noted: Homo sapiens, MDA-MB-231 cells, 72 hours. On the procedure:
as §1

For test [10], the system named is HCC1937. The test can be described thus: CCK-8 tumor cell proliferation, HCC1937. To be noted: Homo sapiens, HCC1937 cells, 72 hours. On the procedure: as §1
The subject of test [11] is Huh7. The test can be described thus: CCK-8 tumor cell proliferation, Huh7. To be noted: Homo sapiens, Huh-7, Huh7 cells, 72 hours. On the procedure: as §1
The subject of test [12] is A549. The test can be described thus: CCK-8 tumor cell proliferation, A549. To be noted: Homo sapiens, A549 cells, 72 hours. As for the experimental part: as §1
The test system of test [13] is H1975OR. The test can be described thus: CCK-8 tumor cell proliferation, H1975OR. To be noted: H1975OR cells (Osimertinib resistant), 72 hours. The essentials:
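Osimertinib-resistant H1975 cells, selected by raising Osimertinib stepwise from 50 nM to 3 μM, were treated for 72 h with compound at 0.000508–10 μM. Proliferation was read by CCK-8, and IC50 came from fitting the concentration–response curve, given as mean ± SD.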

The target of test [14] is T1, AKT2 (Homo sapiens, UniProt P31751).
T1 construct: AKT1, AKT2, and AKT3 proteins in H1975-OR cells; endogenous in cells; host or cells: H1975-OR (osimertinib-resistant H1975)
The test can be described thus: Western Blot, degradation of AKT2 protein in H1975-OR cells. To be noted: 1000 nM, 24 hours, maximum degradation rate. The essentials:
(§2)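 H1975-OR cells are Osimertinib-resistant H1975, adapted stepwise from 50 nM to 3 μM Osimertinib. Cells were treated with compound for 24 h, lysed, and immunoblotted with ECL detection. Band grayscale density was quantified.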

The test system of test [15] is H1975. The test can be described thus: CCK-8 tumor cell proliferation, H1975. To be noted: Homo sapiens, NCI-H1975, H1975 cells, 72 hours. The essentials: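 Cells seeded at 2000-3000/well, incubated overnight, then treated with compound (0.000508 μM-10 μM) for 72 h. Proliferation measured by CCK-8. IC50 fitted from concentration-response curves and reported as mean ± SD.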

The target in test [16] is T2, AKT1 (Homo sapiens, UniProt P31749).
T2 construct: AKT1, AKT2, and AKT3 proteins in H1975-OR cells; endogenous in cells; host or cells: H1975-OR (osimertinib-resistant H1975)
The test can be described thus: Western Blot, degradation of AKT1 protein in H1975-OR cells. To be noted: 1000 nM, 24 hours, maximum degradation rate. The essentials: as §2
(Immunoblotting shows a protein as a band on a membrane.)

Test [17] addresses AKT3 (Homo sapiens, UniProt Q9Y243). The test can be described thus: Western Blot, degradation of AKT3 protein in H1975-OR cells. On the set-up: endogenous in cells; host or cells: H1975-OR (osimertinib-resistant H1975). To be noted: 1000 nM, 24 hours, maximum degradation rate. The essentials:
as §2

This passage reports IC50 and Dmax results from patent US20240132492A1, “PYRIDOPYRIMIDINE-BASED COMPOUND AND APPLICATION THEREOF” (JINAN UNIVERSITY, priority 2021, published 2024).

Sequence of AKT3 (Q9Y243 whole entry): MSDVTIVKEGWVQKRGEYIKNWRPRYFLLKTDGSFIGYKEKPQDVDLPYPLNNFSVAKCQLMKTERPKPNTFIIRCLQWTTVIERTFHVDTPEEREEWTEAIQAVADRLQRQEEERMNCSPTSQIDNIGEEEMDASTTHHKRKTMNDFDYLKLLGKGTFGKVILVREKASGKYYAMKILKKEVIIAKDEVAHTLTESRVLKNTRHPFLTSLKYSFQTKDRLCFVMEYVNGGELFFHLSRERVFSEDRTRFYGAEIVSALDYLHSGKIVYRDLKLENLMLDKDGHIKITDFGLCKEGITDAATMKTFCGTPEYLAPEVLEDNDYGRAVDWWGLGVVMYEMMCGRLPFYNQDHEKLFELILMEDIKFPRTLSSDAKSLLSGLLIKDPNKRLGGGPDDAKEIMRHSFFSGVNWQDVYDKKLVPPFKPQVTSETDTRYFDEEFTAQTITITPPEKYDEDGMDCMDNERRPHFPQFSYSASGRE
T1 sequence (P31751 whole entry): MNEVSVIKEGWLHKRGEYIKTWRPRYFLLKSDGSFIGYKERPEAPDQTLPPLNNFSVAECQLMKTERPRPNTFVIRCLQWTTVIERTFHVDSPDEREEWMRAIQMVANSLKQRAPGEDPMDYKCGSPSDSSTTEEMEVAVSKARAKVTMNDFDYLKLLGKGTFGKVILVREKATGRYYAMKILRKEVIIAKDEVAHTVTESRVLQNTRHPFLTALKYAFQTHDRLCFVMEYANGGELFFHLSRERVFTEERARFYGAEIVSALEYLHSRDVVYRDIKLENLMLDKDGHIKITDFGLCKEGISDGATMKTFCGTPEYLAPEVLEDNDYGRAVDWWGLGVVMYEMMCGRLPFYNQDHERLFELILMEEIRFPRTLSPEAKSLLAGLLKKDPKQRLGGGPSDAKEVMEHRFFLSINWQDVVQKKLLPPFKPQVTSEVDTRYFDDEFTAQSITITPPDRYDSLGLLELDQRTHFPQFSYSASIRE
T2 sequence (P31749 whole entry): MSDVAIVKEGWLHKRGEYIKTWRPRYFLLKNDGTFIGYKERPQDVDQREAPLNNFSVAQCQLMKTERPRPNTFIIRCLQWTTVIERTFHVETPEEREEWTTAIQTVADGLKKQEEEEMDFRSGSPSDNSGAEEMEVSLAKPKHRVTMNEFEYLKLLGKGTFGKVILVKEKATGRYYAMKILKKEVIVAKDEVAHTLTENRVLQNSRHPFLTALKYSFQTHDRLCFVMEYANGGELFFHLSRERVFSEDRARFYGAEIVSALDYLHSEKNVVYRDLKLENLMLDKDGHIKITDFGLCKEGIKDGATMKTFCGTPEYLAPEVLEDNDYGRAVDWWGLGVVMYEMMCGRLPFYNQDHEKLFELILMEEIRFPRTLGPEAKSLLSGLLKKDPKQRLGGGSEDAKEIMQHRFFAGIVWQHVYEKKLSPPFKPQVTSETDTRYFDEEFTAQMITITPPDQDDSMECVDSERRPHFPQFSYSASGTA

For orientation: IC50 means the midpoint of a concentration-inhibition curve. In the case of `COc1cc(N2CCN(CCNC(=O)CC34CC5CC(CC(C5)C3)C4)CC2)ccc1Nc1ncc2c(C)cc(=O)n(-c3cccc(NC(=O)C4CC4)c3)c2n1` [ZX-HYT-51, N-(3-(2-((4-(4-(2-(2-((3R, 5R, 7R)-adamantan-1-yl)acetylamino)ethyl)piperazin-1-yl)-2-methoxyphenyl))amino)-5-methyl-7-oxypyridino [2,3-d]pyrimidin-8 (7H)-yl) phenyl) cyclopropane formamide], the IC50 in test [1] was 0.644 µM; in [2], 0.125 µM; in [3], 0.263 µM; in [4], 0.333 µM; in [5], above 3 µM; in test [6], above 10 µM. The concentration for half-maximal inhibition (IC50) in test [7] is 0.0553 µM; in test [8] it was 0.0513 µM; in test [9] it was 0.145 µM; in [10] it was above 10 µM; in test [11], above 10 µM; in [12], 0.629 µM.
With `COc1cc(N2CCN(CCCCNC(=O)CC34CC5CC(CC(C5)C3)C4)CC2)ccc1Nc1ncc2c(C)cc(=O)n(-c3cccc(NC(=O)C4CC4)c3)c2n1` [ZX-HYT-52, N-(3-(2-((4-(4-(4-(2-((3R, 5R, 7R)-adamantan-1-yl)acetylamino)butyl)piperazin-1-yl)-2-methoxyphenyl))amino)-5-methyl-7-oxypyridino [2,3-d]pyrimidin-8 (7H)-yl) phenyl) cyclopropane formamide], the IC50 amounted to 0.478 µM in test [1]; 0.126 µM in [2]; 0.25 µM in [3]; 0.303 µM in [4]; 0.568 µM in test [5]; 2.5 µM in test [6]. The IC50 is 0.104 µM in test [7]; 0.0721 µM in test [8]; 1.99 µM in test [9]; 0.002 to 0.005 µM in [10]; 1.35 µM in test [11]; 0.833 µM in test [12].
Consider `COc1cc(N2CCN(C(=O)CC34CC5CC(CC(C5)C3)C4)CC2)ccc1Nc1ncc2c(C)cc(=O)n(-c3cccc(NC(=O)C4CC4)c3)c2n1` [ZX-HYT-50, N-(3-(2-((4-(4-(2-((3R, 5R, 7R)-adamantan-1-yl)acetyl)piperazin-1-yl)-2-methoxyphenyl)amino)-5-methyl-7-oxypyridino [2,3-d]pyrimidin-8 (7H)-yl)phenyl) cyclopropane formamide], for which the IC50 is above 10 µM in test [1]; 0.0137 µM in [2]; 0.0293 µM in test [3]; 0.0421 µM in test [4]; above 10 µM in test [5]; above 10 µM in [6]. In addition, the half-maximal inhibitory concentration (IC50) was 0.0119 µM in test [7]; 0.00864 µM in [8]; 0.155 µM in [9]; above 10 µM in test [10]; 0.632 µM in [11]; 0.668 µM in [12].
Turning to `COc1cc(N2CCN(C(=O)NC34CC5CC(CC(C5)C3)C4)CC2)ccc1Nc1ncc2c(C)cc(=O)n(-c3cccc(NC(=O)C4CC4)c3)c2n1` [ZX-HYT-64, N-((3S, 5S, 7S)-adamantan-1-yl)-4-(4-((8-(3-(cyclopropaneformamido)phenyl)-5-methyl-7-oxy-7,8-dihydropyridino [2,3-d]pyrimidin-2-yl)amino)-3-methoxyphenyl) piperazin-1-formamide], the half-inhibitory concentration (IC50) in test [1] was 0.141 µM; in test [5], 0.37 µM; in test [6] it was above 10 µM; in [9], 0.0152 µM; in test [10] it was 4 µM.
Consider `COc1cc(N2CCN(C(=O)C34CC5CC(CC(C5)C3)C4)CC2)ccc1Nc1ncc2c(C)cc(=O)n(-c3cccc(NC(=O)C4CC4)c3)c2n1` [ZX-HYT-65, N-(3-(2-((4-(4-((3R, 5R, 7R)-adamantan-1-carbonyl)piperazin-1-yl)-2-methoxyphenyl)amino)-5-methyl-7-oxypyridino [2,3-d]pyrimidin-8 (7H)-yl)phenyl) cyclopropane formamide], for which the half-inhibitory concentration (IC50) in test [1] is above 10 µM; in test [2] it was 0.179 µM; in test [3], 0.234 µM; in test [4], 0.447 µM; in test [5], above 10 µM; in [6] it was above 10 µM. Moreover, the IC50 is 0.0729 µM in [7]; 0.0511 µM in test [8]; 0.104 µM in test [9]; above 10 µM in [10]; 0.335 µM in test [11]; 1.17 µM in test [12].
For the molecule `COc1cc(N2CC3(CN(C(=O)CC45CC6CC(CC(C6)C4)C5)C3)C2)ccc1Nc1ncc2c(C)cc(=O)n(-c3cccc(NC(=O)C4CC4)c3)c2n1` [ZX-HYT-91, N-(3-(2-((4-(6-(2-((3R,5R,7R)-adamantan-1-yl)acetyl)-2,6-diazospira [3.3]hept-2-yl))-2-methoxyphenyl)amino)-5-methyl-7-oxypyridino [2,3-d]pyrimidin-8 (7H)-yl) phenyl) cyclopropane formamide], the 50% inhibitory concentration (IC50) in [1] worked out at 0.937 µM; in test [11], 3 µM.
The matching figures for `COc1nc(N2CCN(C(=O)CC34CC5CC(CC(C5)C3)C4)CC2)ccc1Nc1ncc2c(C)cc(=O)n(-c3cccc(NC(=O)C4CC4)c3)c2n1` [ZX-HYT-67, N-(3-(2-(6-(4-(2-((3R, 5R, 7R)-adamantan-1-yl)acetyl)piperazin-1-yl)-2-methoxypyridin-3-yl))amino)-5-methyl-7-oxypyridino [2,3-d] pyrimidin-8 (7H)-yl) phenyl) cyclopropane formamide]: 0.376 µM and above 10 µM.
The Dmax is the largest share of the target that was removed. As for `COc1cc(N2CCN(CCCCCCCCCCCCNC(=O)CC34CC5CC(CC(C5)C3)C4)CC2)ccc1Nc1ncc2c(C)cc(=O)n(-c3cccc(NCC4CC4)c3)c2n1` [ZX-HYT-19, 2-((3R, 5R, 7R)-adamantan-1-yl)-N-(12-(4-(4-(8-(3-((cyclopropylmethyl)amino)phenyl)-5-methyl-7-oxy-7,8-dihydropyridino [2,3-d]pyrimidin-2-yl)amino)-3-methoxyphenyl)piperazin-1-yl) dodecyl) acetamide], the IC50 was 0.00421 µM in [1]; 3.46 µM in test [13]; 0.041 µM in test [5]; above 10 µM in [6]; 2.29 µM in [15]; below 0.001 µM in test [9]. The maximal degradation (Dmax) at 1 µM worked out at 0% in [14], 0% in [16] and 28% in test [17].
